Assays:
CYP17 = CYP17 (Rattus norvegicus (Rat), UniProt P11715); assay: CYP17 metalloenzyme activity, rat testicular microsomes; type: biochemical; conditions: pooled rat testicular microsomes
Experimental: CYP17 activity was assayed according to the following procedure.

CYP2C9 = CYP2C9 (Homo sapiens (Human), UniProt P11712); assay: biochemical
CYP2C19 = CYP2C19 (Homo sapiens (Human), UniProt P33261); assay: biochemical
CYP3A4 = CYP3A4 (Homo sapiens (Human), UniProt P08684); assay: Inhibition of liver cytochrome P450 enzymes, pooled human liver microsomes
CYP3A4, sequence (P08684 whole entry): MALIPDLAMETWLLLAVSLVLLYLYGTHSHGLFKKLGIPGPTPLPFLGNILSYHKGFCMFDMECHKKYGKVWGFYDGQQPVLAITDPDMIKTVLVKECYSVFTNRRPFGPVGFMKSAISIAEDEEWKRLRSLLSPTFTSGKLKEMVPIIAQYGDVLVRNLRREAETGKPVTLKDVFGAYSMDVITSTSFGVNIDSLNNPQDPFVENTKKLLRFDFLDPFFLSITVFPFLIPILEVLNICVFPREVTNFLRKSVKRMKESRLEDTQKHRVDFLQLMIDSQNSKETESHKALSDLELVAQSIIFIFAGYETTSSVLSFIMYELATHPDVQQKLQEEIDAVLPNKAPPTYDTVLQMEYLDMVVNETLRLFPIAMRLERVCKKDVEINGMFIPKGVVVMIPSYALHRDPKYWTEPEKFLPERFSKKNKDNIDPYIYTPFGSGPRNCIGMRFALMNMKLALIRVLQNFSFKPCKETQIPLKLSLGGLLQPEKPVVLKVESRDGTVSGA

CYP2C19, sequence (P33261 whole entry): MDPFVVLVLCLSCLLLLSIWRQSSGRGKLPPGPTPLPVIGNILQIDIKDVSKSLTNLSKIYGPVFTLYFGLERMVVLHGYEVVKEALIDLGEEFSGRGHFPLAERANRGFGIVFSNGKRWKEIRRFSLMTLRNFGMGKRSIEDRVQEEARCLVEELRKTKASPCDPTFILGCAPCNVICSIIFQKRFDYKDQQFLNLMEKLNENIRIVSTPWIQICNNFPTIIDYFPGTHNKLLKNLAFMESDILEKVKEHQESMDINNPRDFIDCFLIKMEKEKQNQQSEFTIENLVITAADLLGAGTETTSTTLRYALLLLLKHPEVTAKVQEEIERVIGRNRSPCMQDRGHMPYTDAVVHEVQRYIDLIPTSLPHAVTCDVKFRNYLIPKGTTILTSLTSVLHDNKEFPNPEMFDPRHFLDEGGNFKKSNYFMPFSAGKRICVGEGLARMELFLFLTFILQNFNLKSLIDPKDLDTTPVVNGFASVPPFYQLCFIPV
CYP17, sequence (P11715 whole entry): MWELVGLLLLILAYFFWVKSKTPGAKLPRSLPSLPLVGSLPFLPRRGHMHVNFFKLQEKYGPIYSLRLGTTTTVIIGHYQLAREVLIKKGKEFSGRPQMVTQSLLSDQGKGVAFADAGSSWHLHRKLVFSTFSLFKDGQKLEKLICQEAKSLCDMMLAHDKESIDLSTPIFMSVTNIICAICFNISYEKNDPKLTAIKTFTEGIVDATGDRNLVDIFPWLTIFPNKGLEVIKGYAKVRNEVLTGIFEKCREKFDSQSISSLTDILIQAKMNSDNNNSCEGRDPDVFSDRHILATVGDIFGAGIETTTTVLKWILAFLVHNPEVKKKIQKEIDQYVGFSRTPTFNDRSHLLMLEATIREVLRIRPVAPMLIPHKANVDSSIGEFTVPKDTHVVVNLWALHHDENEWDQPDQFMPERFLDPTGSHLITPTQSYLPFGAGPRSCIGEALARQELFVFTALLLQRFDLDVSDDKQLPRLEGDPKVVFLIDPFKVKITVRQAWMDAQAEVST
CYP2C9, sequence (P11712 whole entry): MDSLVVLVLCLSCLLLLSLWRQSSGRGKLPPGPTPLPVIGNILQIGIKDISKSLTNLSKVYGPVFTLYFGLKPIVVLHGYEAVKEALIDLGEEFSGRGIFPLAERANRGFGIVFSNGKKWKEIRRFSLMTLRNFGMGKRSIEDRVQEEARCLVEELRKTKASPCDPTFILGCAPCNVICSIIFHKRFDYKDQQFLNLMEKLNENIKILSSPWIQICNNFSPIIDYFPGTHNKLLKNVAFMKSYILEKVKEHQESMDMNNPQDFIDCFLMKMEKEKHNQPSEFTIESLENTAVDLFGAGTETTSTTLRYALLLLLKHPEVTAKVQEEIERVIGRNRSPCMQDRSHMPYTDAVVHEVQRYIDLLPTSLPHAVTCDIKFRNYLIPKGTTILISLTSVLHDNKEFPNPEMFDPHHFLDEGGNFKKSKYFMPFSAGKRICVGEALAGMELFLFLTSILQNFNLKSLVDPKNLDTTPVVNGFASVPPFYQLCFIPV

- IC50 (CYP17): 290 nM
- IC50 (CYP2C9): 33 µM
- IC50 (CYP2C19): 3 µM
- IC50 (CYP3A4): 770 nM
SMILES: COc1cc2ccc(C(O)(c3cncs3)C(C)C)cc2cc1OC (stereo not shown) [Example 2, 1-(6,7-dimethoxynaphthalen-2-yl)-2-methyl-1-(thiazol-5-yl)propan-1-ol]

— patent US9150527B2, “Metalloenzyme inhibitor compounds” (Innocrin Pharmaceuticals, Inc., priority 2011, dated 2015)
